Five compounds from article PMC5833004 (ACS Central Science, 2018) can be followed below.

“Also recorded” adds a separate entry of the source.

In experiment [1] the target is GFP-fused multimerized CBP bromodomain (Homo sapiens, UniProt Q92793). Description: FRAP assay in U2OS cells, GFP-fused CBP bromodomain. The format is cell-based. As to conditions: compound 1 μM, 2.5 μM SAHA.
The next experiment addresses bromodomain of CBP (Homo sapiens, UniProt Q92793). Put plainly: Alpha Screen assay. Format: binding.
The subject of the next experiment is LP1 cells. Put plainly: Cell proliferation, resazurin assay. The format is cell-based, human. To be noted: 72 h or 144 h.
The next experiment deals with Kasumi cells. Description: Cell proliferation, resazurin assay. Format: cell-based, human. To be noted: 72 h or 144 h.
The test system of experiment [2] is MRC5 nontransformed fibroblast. Description: Cell proliferation, resazurin assay. The format is cell-based. As to conditions: Homo sapiens, MRC5, 72 h, read-out: GI50 MRC5. In general terms: The colour change of resazurin is a common sign of viable cells or microbes.
In the next experiment the test system is HL-60 cells. Description: Cell proliferation, resazurin assay. The format is cell-based. As to conditions: 144 h.
The next experiment concerns IRF4 mRNA. Put plainly: RT-qPCR mRNA transcription in LP1 cells. Format: cell-based, human. As to conditions: 6 h incubation, dose-response.
The next experiment has as its system c-MYC mRNA. Put plainly: RT-qPCR mRNA transcription in LP1 cells. Format: cell-based, human. To be noted: 6 h incubation, dose-response. Background: In qPCR the cycle at which signal appears reflects the starting amount.

Consider `CCOc1ccc(C(C)=O)cc1NC(=O)Cc1csc(-c2ccc(OC)c(OC)c2)n1` [Compound 6], for which the “displacement of GFP-fused CBP bromodomain from chromatin (FRAP)” value (shortened to “displacement”) in experiment [1] is given as “significant displacement”.
As for `CCOc1ccc(C(C)=O)cc1NC(=O)c1ccc(C)c(NC(=O)c2ccco2)c1` [Compound 7], in experiment [1], the “displacement” value was “significant displacement”.
On the same count and under the same terms, the result for `CCOc1ccc(C(C)=O)cc1-c1ccc(N2CCCS2(=O)=O)cc1C` [Compound 13] reads “significant displacement”.
The term GI50 denotes the concentration at which growth is held to half of that of the control. As for `CCOc1ccc(C(C)=O)cc1NC(=O)c1cc(NC(C)=O)cc(NC(=O)c2ccco2)c1` [Compound 16], the “affinity for CBP bromodomain higher by a factor with respect to BRD4(1)” value on bromodomain of CBP is given as “more than 10,000”. The “displacement” value in experiment [1] is given as “significant displacement; also recorded: strongest effect”. The “proliferation of LP1 cells” value with LP1 cells is recorded as “selectively inhibited the proliferation”. Moreover, the “proliferation of Kasumi cells” value with Kasumi cells was “selectively inhibited the proliferation”. Further, in experiment [2], the GI50 was more than 20 µM. Further, the “proliferation of HL-60 cells” value in the experiment with HL-60 cells was “selectively inhibited the proliferation”. Also, the “IRF4 mRNA level” value with IRF4 mRNA is listed as “reduced”. Moreover, in the experiment on c-MYC mRNA, the “c-MYC mRNA level” value is recorded as “reduced”.
Consider `CCOc1ccc(C(C)=O)cc1NC(=O)c1cc(NC(C)=O)cc(NC(=O)c2ccc(OC)c(OC)c2)c1` [Compound 17], for which the “displacement” value in experiment [1] was “significant displacement”.
